According to article PMC7686039 (Bioorganic chemistry, 2020):
“Also recorded” adds a separate entry of the source.

Experiments:
[1] = target: Recombinant full-length Sirt1 (human) (UniProt Q96EB6); test: cross-linking
[2] = system: recombinant Sirt1; test: inhibition/competition of p53 ABP labeling of recombinant Sirt1; type: binding, human
[3] = system: Sirt1; conditions: ref [17]; cited from earlier work
[4] = system: Sirt1 (overexpressed) in HEK293T lysates; test: p53 ABP labeling of Sirt1 in HEK293T lysates overexpressing Sirt1; type: binding; conditions: 500 μM inhibitor; 5 μM p53 ABP, 50 μg lysate, 500 μM NAD^+
[5] = system: Sirt2; conditions: cited from earlier work

Chain of UniProt Q96EB6 (Q96EB6 whole entry): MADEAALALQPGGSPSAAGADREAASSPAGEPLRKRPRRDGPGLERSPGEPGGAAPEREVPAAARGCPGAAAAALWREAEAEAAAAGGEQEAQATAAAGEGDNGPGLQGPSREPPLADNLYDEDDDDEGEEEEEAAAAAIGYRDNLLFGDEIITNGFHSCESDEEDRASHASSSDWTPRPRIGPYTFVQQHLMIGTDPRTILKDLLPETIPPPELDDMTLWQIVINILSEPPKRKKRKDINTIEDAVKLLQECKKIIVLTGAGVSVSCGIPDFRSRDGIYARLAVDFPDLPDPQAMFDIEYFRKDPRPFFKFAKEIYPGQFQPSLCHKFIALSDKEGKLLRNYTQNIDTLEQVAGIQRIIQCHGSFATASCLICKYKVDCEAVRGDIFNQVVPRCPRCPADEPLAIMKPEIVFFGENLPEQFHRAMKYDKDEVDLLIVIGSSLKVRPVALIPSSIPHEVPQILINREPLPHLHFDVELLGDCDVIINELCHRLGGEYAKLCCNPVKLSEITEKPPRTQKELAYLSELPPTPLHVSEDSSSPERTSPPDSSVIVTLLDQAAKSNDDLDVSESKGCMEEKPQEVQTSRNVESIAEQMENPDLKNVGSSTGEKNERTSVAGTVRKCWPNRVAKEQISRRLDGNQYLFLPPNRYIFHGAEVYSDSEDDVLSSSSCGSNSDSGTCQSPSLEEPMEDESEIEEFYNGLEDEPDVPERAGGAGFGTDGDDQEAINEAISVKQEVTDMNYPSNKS

Work on “8-mer thioacetyl-lysine p53 peptide, (diazirine)-RHKK(thioacetyl)LMF-(propargylglycine)-NH2” yielded a fold increase of labelling with NAD+ over without NAD+ [1] of 4 fold.

In the case of `N[C@@H](CCC(=O)N[C@@H](CSN=O)C(=O)NCC(=O)O)C(=O)O` [GSNO, S-nitrosoglutathione], the “effect on p53 ABP labeling of recombinant Sirt1, GSNO pretreatment” value ([2]; 100 μM GSNO, presence and absence of 500 μM NAD^+) is given as “A dramatic loss of Sirt1 labeling” and the “Sirt1 deacetylase activity upon S-nitrosation” value [3] is given as “complete loss of deacetylase activity”.

In the case of `Cc1cc(C)nc(SCC(=O)Nc2ncc(Cc3cccc4ccccc34)s2)n1` [SirReal2], the “change of p53 ABP labeling of Sirt1” value [4] is given as “no reduction in activity-based labeling of Sirt1; also recorded: a slight increase in activity-based labeling of Sirt1” and the “Sirt2 selectivity of SirReal2” value ([5]; ref [48]) is given as “Sirt2-selective”.

In the case of `CCCCCCCCCCCCCC(=S)NCCCCC(NC(=O)OCc1ccccc1)C(=O)Nc1ccccc1` (centres unmarked) [TM], the “change of p53 ABP labeling of Sirt1” value [4] is listed as “no reduction in activity-based labeling of Sirt1” and the “Sirt2 selectivity of TM” value ([5]; ref [22]) is listed as “Sirt2-selective”.

In the case of “H2N-RHKK(trifluoroacetyl)LMF-NH2 [p53tfa]”, the “concentration needed to compete with p53 ABP labeling versus Kd” value ([2]; 0.2–500 μM, competitor reversible, p53 ABP labeling covalent and irreversible) is reported as “exceeds the Kd values”.
